Literature values in patent publication US7785824B2, “Hydrolysed casein product comprising tripeptides IPP and/or VPP” (Conopco Inc., priority 2003, dated 2010).

What was measured:
[1] = biological target: Angiotensin I Converting Enzyme (ACE) (Homo sapiens, UniProt P12821); details: concentration which results in 50% inhibition of the ACE activity
[2] = system: hypertensive humans; details: in sour milk, placebo-controlled study

Angiotensin I Converting Enzyme (ACE), sequence (P12821 30-1306, species assumed): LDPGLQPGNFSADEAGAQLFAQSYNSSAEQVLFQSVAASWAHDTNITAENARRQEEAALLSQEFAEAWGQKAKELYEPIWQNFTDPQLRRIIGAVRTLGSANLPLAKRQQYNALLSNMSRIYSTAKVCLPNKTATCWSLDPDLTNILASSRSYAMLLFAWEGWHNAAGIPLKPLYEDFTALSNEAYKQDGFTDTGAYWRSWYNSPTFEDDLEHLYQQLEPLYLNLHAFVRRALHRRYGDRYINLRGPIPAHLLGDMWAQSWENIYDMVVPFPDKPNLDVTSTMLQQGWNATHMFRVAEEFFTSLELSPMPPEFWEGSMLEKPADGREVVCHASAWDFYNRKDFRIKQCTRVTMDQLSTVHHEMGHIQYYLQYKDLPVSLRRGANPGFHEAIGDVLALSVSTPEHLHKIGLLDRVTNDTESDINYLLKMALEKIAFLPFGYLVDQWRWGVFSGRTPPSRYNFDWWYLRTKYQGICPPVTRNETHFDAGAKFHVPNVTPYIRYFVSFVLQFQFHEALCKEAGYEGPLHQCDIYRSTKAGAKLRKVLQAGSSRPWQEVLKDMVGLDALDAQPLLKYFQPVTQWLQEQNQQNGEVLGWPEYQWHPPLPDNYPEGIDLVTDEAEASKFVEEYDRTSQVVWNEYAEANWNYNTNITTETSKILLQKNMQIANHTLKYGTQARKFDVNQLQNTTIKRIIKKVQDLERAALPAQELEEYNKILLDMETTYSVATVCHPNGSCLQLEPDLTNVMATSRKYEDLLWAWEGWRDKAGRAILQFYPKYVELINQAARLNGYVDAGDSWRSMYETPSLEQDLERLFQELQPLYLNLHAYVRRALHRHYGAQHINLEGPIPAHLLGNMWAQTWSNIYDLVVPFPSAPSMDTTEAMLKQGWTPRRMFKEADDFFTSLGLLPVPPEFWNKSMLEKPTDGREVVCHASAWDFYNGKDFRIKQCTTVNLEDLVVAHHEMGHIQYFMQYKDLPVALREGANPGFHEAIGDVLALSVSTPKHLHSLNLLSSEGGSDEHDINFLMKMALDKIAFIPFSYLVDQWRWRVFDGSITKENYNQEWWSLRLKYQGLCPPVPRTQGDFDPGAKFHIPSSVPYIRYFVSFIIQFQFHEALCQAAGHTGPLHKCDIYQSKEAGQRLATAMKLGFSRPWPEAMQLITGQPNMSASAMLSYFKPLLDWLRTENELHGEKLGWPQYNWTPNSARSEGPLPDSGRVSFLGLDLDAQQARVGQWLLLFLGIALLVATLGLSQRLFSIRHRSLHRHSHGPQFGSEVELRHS

Row | IC50 [1] | Substance | blood pressure lowering effect [2]
1 | 5 µM | Ile-Pro-Pro [IPP] | blood pressure lowering effect
2 | 9.6 µM | Leu-Pro-Pro [LPP] | 

Row | Substance | IC50 [1] | blood pressure lowering effect [2]
3 | Val-Pro-Pro [VPP] | 9 µM | blood pressure lowering effect
